# Data reported in patent US7432260B2, “Pyrimidine compounds” (Cyclacel Limted, priority 2002, dated 2008).
# Tests used:
# CDK1/cyclin B = CDK1/cyclin B (Homo sapiens, UniProt P06493); test: Kinase assay CDK1/cyclin B; type: biochemical; settings: Table 2; read-out: Kinase Inhibition IC50 CDK1 cyclin B
# Procedure: (§1) Kinase assays. […] This was achieved by measurement of incorporation of radioactive phosphate from ATP into appropriate polypeptide substrates. Recombinant protein kinases and kinase complexes were produced or obtained commercially. Assays were performed using 96-well plates and appropriate assay buffers (typically 25 mM β-glycerophosphate, 20 mM MOPS, 5 mM EGTA, 1 mM DTT, 1 mM […], pH 7.4), into which were added 2-4 μg of active enzyme with appropriate substrates. The reactions were initiated by addition of Mg/ATP mix (15 mM MgCl2+100 μM ATP with 30-50 kBq per well of [γ-^32P]-ATP) and mixtures incubated as required at 30° C. Reactions were stopped on ice, followed by filtration through p81 filterplates or GF/C filterplates (Whatman Polyfiltronics, Kent, UK). After washing 3 times with 75 mM aq orthophosphoric acid, plates were dried, scintillant added and incorporated radioactivity measured in a scintillation counter (TopCount, Packard Instruments, Pangbourne, Berks, UK). Compounds for kinase assay were made-up as 10 mM stocks in DMSO and diluted into 10% DMSO inrassay buffer.
# CDK2/cyclin A = CDK2/cyclin A (Homo sapiens, UniProt P24941); test: Kinase assay CDK2/cyclin A; type: biochemical; settings: Table 2; read-out: Kinase Inhibition IC50 CDK2 cyclin A
# Procedure: as §1
# CDK2/cyclin E = CDK2/cyclin E (Homo sapiens, UniProt P24941); test: Kinase assay CDK2/cyclin E; type: biochemical; settings: Table 2; read-out: Kinase Inhibition IC50 CDK2 cyclin E
# Procedure: as §1
# CDK4/cyclin D1 = CDK4/cyclin D1 (Homo sapiens, UniProt P11802); test: Kinase assay CDK4/cyclin D1; type: biochemical; settings: Table 2; read-out: Kinase Inhibition IC50 CDK4 cyclin D1
# Procedure: as §1
# CDK7/cyclin H = CDK7/cyclin H (Homo sapiens, UniProt P50613); test: CDK7 assay; type: biochemical; settings: Table 2; read-out: Kinase Inhibition IC50 CDK7 cyclin H
# Procedure: as §1
# (§2) CDK 7 and 9 assays. CTD peptide substrate (biotinyl-Ahx-(Tyr-Ser-Pro-Thr-Ser-Pro-Ser)4-NH2; 1-2 mg/mL) and recombinant human CDK7/cyclin H, CDK9/cyclin T1, or CDK9/cyclin K (0.5-2 μg) were incubated for 45 min at 30° C. in the presence of varying amounts of test compound in 20 mM MOPS pH 7.2, 25 mM β-glycerophosphate, 5 mM EGTA, 1 mM DTT, 1 mM sodium vanadate, 15 mM MgCl2, and 100 μM ATP (containing a trace amount of ^32PγATP) in a total volume of 25 μL in a 96-well microtiter plate. The reaction was stopped by placing the plate on ice for 2 min. Avidin (50 μg) was added to each well, and the plate was incubated at room temp for 30 min. The samples were transferred to a 96-well P81 filter plate, and washed (4×200 μL per well) with 75 mM phosphoric acid. Microscint 40 scintillation liquid (50 μL) was added to each well, and the amount of ^32P incorporation for each sample was measured using a Packard Topcount microplate scintillation counter.
# CDK9/cyclin T1 = CDK9/cyclin T1 (Homo sapiens, UniProt P50750); test: CDK9 assay; type: biochemical; settings: Table 2; read-out: Kinase Inhibition IC50 CDK9 cyclin T1
# Procedure: as §1, §2
# A549 = test: 72-h MTT cytotoxicity assay A549; type: cell-based; settings: Homo sapiens, A549, 72 h, Table 4
# Procedure: (§3) MTT cytotoxicity assay. […] Standard 72-h MTT (thiazolyl blue; 3-[4,5-dimethylthiazol-2-yl]-2,5-diphenyltetrazolium bromide) assays were performed (Haselsberger, K.; Peterson, D. C.; Thomas, D. G.; Darling, J. L. Anti Cancer Drugs 1996, 7, 331-8; Loveland, B. E.; Johns, T. G.; Mackay, I. R.; Vaillant, F.; Wang, Z. X.; Hertzog, P. J. Biochemistry International 1992, 27, 501-10). In short: cells were seeded into 96-well plates according to doubling time and incubated overnight at 37° C. Test compounds were made up in DMSO and a 1/3 dilution series prepared in 100 μL cell media, added to cells (in triplicates) and incubated for 72 ho at 37° C. MTT was made up as a stock of 5 mg/mL in cell media and filter-sterilised. Media was removed from cells followed by a wash with 200 μL PBS.
# (§4) MTT solution was then added at 20 μL per well and incubated in the dark at 37° C. for 4 h. MTT solution was removed and cells again washed with 200 μL PBS. MTT dye was solubilised with 200 μL per well of DMSO with agitation.
# HT29 = test: 72-h MTT cytotoxicity assay HT29; type: cell-based; settings: Homo sapiens, HT-29, 72 h, Table 4
# Procedure: as §3, §4
# Saos-2 = test: 72-h MTT cytotoxicity assay Saos-2; type: cell-based; settings: Homo sapiens, SAOS-2, 72 h, Table 4
# Procedure: as §3, §4
# CDK9/cyclin T1, sequence (P50750 whole entry): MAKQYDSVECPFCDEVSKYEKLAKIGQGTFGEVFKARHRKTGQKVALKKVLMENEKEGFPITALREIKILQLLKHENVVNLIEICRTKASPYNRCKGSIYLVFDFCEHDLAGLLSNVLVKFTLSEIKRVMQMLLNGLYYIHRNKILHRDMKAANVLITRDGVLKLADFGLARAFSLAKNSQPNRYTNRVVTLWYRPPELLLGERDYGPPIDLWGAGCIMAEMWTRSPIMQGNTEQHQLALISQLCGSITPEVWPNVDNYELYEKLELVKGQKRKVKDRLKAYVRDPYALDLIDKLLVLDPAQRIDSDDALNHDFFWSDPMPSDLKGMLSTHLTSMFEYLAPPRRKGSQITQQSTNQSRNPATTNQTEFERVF
# CDK9/cyclin T1, sequence (O60563 whole entry partner): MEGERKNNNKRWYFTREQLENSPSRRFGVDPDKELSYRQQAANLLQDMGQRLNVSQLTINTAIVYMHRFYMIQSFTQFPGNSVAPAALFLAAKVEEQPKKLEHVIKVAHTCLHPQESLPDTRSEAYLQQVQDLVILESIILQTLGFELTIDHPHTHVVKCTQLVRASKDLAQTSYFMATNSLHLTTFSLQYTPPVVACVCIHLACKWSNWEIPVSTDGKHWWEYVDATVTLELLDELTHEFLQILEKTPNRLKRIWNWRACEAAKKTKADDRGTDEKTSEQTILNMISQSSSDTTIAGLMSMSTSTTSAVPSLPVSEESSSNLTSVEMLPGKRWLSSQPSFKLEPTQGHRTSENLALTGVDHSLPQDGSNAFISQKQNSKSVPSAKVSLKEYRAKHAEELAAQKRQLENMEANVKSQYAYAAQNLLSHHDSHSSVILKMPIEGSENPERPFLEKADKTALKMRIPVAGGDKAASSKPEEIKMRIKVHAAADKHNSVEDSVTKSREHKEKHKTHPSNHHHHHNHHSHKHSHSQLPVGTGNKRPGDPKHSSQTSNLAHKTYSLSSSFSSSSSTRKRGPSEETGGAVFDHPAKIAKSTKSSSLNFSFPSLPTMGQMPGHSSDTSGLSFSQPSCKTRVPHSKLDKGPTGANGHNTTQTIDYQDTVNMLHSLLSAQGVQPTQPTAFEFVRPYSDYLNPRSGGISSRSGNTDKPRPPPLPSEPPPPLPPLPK
# CDK4/cyclin D1, sequence (P11802 whole entry): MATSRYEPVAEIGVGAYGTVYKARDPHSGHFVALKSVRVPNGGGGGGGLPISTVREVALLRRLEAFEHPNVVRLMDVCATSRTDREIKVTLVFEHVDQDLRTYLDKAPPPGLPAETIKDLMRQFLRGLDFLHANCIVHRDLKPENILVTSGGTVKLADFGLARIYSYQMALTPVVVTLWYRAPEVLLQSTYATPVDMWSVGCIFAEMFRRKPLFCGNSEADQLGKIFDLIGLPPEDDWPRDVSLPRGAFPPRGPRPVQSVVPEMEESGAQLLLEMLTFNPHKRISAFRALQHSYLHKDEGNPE
# CDK4/cyclin D1, sequence (P24385 whole entry partner): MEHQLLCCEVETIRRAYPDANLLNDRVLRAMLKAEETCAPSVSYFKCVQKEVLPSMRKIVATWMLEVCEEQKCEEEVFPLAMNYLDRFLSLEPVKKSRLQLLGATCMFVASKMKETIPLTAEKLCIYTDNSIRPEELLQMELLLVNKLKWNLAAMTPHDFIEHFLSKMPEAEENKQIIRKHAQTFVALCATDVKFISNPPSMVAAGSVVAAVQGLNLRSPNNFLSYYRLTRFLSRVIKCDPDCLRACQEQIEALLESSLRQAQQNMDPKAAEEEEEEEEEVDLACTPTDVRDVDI
# CDK1/cyclin B, sequence (P06493 whole entry): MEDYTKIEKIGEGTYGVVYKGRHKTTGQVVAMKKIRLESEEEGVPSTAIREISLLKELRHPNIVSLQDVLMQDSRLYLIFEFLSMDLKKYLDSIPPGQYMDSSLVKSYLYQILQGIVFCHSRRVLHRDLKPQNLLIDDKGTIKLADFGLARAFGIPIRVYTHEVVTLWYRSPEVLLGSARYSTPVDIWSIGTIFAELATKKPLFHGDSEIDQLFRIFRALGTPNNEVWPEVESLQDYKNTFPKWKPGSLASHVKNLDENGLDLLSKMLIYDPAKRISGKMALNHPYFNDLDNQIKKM
# CDK1/cyclin B, sequence (P14635 whole entry partner): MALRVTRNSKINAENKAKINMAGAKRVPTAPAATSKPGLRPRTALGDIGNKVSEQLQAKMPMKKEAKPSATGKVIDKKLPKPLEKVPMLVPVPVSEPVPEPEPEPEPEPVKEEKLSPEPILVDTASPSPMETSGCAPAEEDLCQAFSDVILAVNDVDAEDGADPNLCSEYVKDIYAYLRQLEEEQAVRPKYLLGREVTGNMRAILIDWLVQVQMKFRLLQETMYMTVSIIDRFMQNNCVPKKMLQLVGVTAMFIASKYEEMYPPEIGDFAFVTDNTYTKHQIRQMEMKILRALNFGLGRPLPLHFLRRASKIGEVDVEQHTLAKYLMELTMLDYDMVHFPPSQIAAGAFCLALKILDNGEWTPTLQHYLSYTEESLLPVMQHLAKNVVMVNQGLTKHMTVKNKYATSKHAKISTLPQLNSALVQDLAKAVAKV
# CDK7/cyclin H, sequence (P50613 whole entry): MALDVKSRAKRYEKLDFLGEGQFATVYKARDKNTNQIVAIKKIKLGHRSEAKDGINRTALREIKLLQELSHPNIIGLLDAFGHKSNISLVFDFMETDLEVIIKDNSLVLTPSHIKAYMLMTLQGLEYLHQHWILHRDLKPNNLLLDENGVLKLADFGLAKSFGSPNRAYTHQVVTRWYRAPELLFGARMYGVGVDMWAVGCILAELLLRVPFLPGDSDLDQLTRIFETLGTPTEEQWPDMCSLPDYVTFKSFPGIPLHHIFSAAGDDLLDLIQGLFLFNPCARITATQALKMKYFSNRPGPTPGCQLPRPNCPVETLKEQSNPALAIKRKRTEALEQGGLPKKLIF
Compound,IC50 (CDK1/cyclin B) [nM],IC50 (CDK2/cyclin A) [nM],IC50 (CDK2/cyclin E) [nM],IC50 (CDK4/cyclin D1) [nM],IC50 (CDK7/cyclin H) [nM],IC50 (CDK9/cyclin T1) [nM],IC50 (A549) [nM],IC50 (HT29) [nM],IC50 (Saos-2) [nM]
"Cc1nc(NC(=O)CCN)sc1-c1ccnc(Nc2cccc([N+](=O)[O-])c2)n1 [Compound 13, 3-Amino-N-{4-methyl-5-[2-(3-nitro-phenylamino)-pyrimidin-4-yl]-thiazol-2-yl}-propionamide]",5600,570,280,670,370,42,3100,2800,1900
"CCN(CC)CCNCCC(=O)Nc1nc(C)c(-c2ccnc(Nc3ccc(Cl)cc3)n2)s1 [Compound 36, N-{5-[2-(4-Chloro-phenylamino)-pyrimidin-4-yl]-4-methyl-thiazol-2-yl}-3-(2-diethylamino-ethylamino)-propionamide]",33000,13000,3400,8800,4000,4800,26000,9600,38000
"Cc1nc(NC(=O)CCNCCN2CCOCC2)sc1-c1ccnc(Nc2ccc(Cl)cc2)n1 [Compound 37, N-{5-[2-(4-Chloro-phenylamino)-pyrimidin-4-yl]-4-methyl-thiazol-2-yl}-3-(2-morpholin-4-yl-ethylamino)-propionamide]",> 100000,16000,8000,18000,,6300,35000,15000,73000
"COc1cccc(Nc2nccc(-c3sc(NC(=O)CCN4CCOCC4)nc3C)n2)c1 [Compound 39, N-{5-[2-(3-Methoxy-phenylamino)-pyrimidin-4-yl]-4-methyl-thiazol-2-yl}-3-morpholin-4-yl-propionamide]",11000,2700,1200,32000,,15000,800,720,950

# More lines, main results first:
IC50 (CDK1/cyclin B) [nM],IC50 (CDK2/cyclin A) [nM],IC50 (CDK2/cyclin E) [nM],IC50 (CDK4/cyclin D1) [nM],IC50 (CDK7/cyclin H) [nM],IC50 (CDK9/cyclin T1) [nM],Compound,IC50 (A549) [nM],IC50 (HT29) [nM],IC50 (Saos-2) [nM]
5200,1200,2200,430,1300,210,"Cc1nc(C)c(-c2ccnc(Nc3ccc(N4CCN(CCO)CC4)cc3)n2)s1 [Compound 9, 2-(4-{4-[4-(2,4-Dimethyl-thiazol-5-yl)-pyrimidin-2-ylamino]-phenyl}-piperazin-1-yl)-ethanol]",3000,2000,2000
1900,580,2700,1800,,1100,"COc1ccc(Nc2nccc(-c3sc(NC(=O)CCN4CCOCC4)nc3C)n2)cc1 [Compound 38, N-{5-[2-(4-Methoxy-phenylamino)-pyrimidin-4-yl]-4-methyl-thiazol-2-yl}-3-morpholin-4-yl-propionamide]",2700,1700,5300
61000,14000,64000,7400,,8900,"COc1ccc(Nc2nccc(-c3sc(NC(=O)CCN4CCN(C)CC4)nc3C)n2)cc1 [Compound 40, N-{5-[2-(4-Methoxy-phenylamino)-pyrimidin-4-yl]-4-methyl-thiazol-2-yl}-3-(4-methyl-piperazin-1-yl)-propionamide]",4400,730,4300
2500,840,660,370,17000,240,"CC(=O)Nc1ccc(Nc2nccc(-c3sc(C)nc3C)n2)cc1 [Compound 45, N-{4-[4-(2,4-Dimethyl-thiazol-5-yl)-pyrimidin-2-ylamino]-phenyl}-acetamide]",2600,2200,2800
